As usually defined, the MIC is the lowest concentration that inhibits growth of the organism. A low value points to greater potency. In general, Ki refers to the equilibrium dissociation constant of an inhibitor or competing ligand from its target.

Each structure is given as a SMILES string. ≈ marks a conversion by molar mass, not a printed value.

The test system of the first assay is Mycobacterium tuberculosis. Put plainly: Antimycobacterial activity against Mycobacterium tuberculosis H37Rv after 5 days by resazurin-based microdilution method. The format is functional. The conditions noted are these: 120 h. For orientation: Alamar Blue is a resazurin reagent that responds to reducing activity.
In the case of `Oc1ccc(Nc2nc(-c3ccc(Cl)cc3)cs2)cc1`, 200 µM (≈ 60.6 µg/mL) was the least that counted as inhibitory (MIC). `COc1ccc(-c2csc(Nc3ccc(O)cc3)n2)cc1`: the MIC is > 200 µM. As for `COc1ccc(-c2csc(Nc3cccc(C)n3)n2)cc1`, the MIC was > 200 µM. Still for that read-out and setting: then `Fc1ccc(Nc2nc(-c3cccnc3)cs2)cc1`, with > 200 µM. For `Cc1cccnc1Nc1nc(-c2ccc(Br)cc2)c(Br)s1`, the MIC is > 200 µM. Still for that read-out and setting: under `Fc1ccc(Nc2nc(-c3ccc(Cl)cc3)cs2)cc1` stands 12.5 µM (≈ 3.81 µg/mL); under `Fc1ccc(Nc2nc(-c3ccc(Br)cc3)cs2)cc1`, 25 µM (≈ 8.73 µg/mL). Take `Cc1sc(Nc2ccc(F)cc2)nc1-c1ccc(Br)cc1`: 100 µM (≈ 36.3 µg/mL) was the least that counted as inhibitory (MIC). `Fc1ccc(Nc2nc(-c3ccc(Br)cc3)c(Br)s2)cc1` came in with an MIC of 25 µM (≈ 10.7 µg/mL). In the case of `Fc1ccc(Nc2nc(-c3ccc4ccccc4c3)cs2)cc1`, the MIC came to 100 µM (≈ 32 µg/mL). In the case of `COc1ccc(-c2csc(Nc3ccc(F)cc3)n2)cc1`, the minimal inhibitory concentration (MIC) is 12.5 µM (≈ 3.75 µg/mL). This MIC is about 8-fold lower than that of the molecule before. The same measure, in the same setting: then `COc1ccc(-c2csc(Nc3ccc(Cl)cc3[N+](=O)[O-])n2)cc1`, with 12.5 µM (≈ 4.52 µg/mL); and `O=[N+]([O-])c1cc(Cl)ccc1Nc1nc(-c2ccc3ccccc3c2)cs1`, with > 200 µM; and `O=[N+]([O-])c1cc(Cl)ccc1Nc1nc(-c2ccccn2)cs1`, with > 200 µM. As to `O=[N+]([O-])c1cc(Cl)ccc1Nc1nc(-c2cccnc2)cs1`, the minimal inhibitory concentration (MIC) was > 200 µM. The same measure, in the same setting: then `O=[N+]([O-])c1cc(Cl)ccc1Nc1nc(-c2ccncc2)cs1`, with > 200 µM; and `Brc1ccc(-c2csc(Nc3ccccn3)n2)cc1`, with > 200 µM.

Turning to `Cc1sc(Nc2ccccn2)nc1-c1ccc(Br)cc1`, the MIC is > 200 µM. In the case of `Brc1ccc(-c2nc(Nc3ccccn3)sc2Br)cc1`, the minimum inhibitory concentration (MIC) was > 200 µM. As to `Cc1cccnc1Nc1nc(-c2ccc(Cl)c(Cl)c2)cs1`, the MIC was > 200 µM. `Cc1cccnc1Nc1nc(-c2ccc(Br)cc2)c(C)s1`: inhibition of growth (MIC) required 100 µM (≈ 36 µg/mL). Regarding `Cc1cccc(Nc2nc(-c3ccc(Cl)c(Cl)c3)cs2)n1`, the MIC was > 200 µM. As to `Cc1cccc(Nc2nc(-c3ccc(Br)cc3)c(C)s2)n1`, the MIC was > 200 µM.

Regarding `Cc1cccc(Nc2nc(-c3cccc4ccccc34)cs2)n1`, the MIC was > 200 µM. Same read-out and setting: then `Cc1cccnc1Nc1nc(-c2cccnc2)cs1`, with > 200 µM; and `Cc1cccc(Nc2nc(-c3ccncc3)cs2)n1`, with 100 µM (≈ 26.8 µg/mL); and `Cc1cccnc1Nc1nc(-c2ccncc2)cs1`, with > 200 µM.

In the case of `Oc1ccc(Nc2nc(-c3cccnc3)cs2)cc1`, the MIC was > 200 µM.

As for `c1ccc(Nc2nc(-c3cccnc3)cs2)nc1`, the MIC is > 200 µM. On the same count and under the same terms, under `Oc1ccc(Nc2nc(-c3ccncc3)cs2)cc1` stands > 200 µM; under `Fc1ccc(Nc2nc(-c3ccncc3)cs2)cc1`, 25 µM (≈ 6.78 µg/mL).

Molecular target in the next assay: not listed separately
Put plainly: Binding affinity to Mycobacterium tuberculosis beta-Ketoacyl-ACP Synthase.
Conditions: not given
Take `Fc1ccc(Nc2nc(-c3ccc(Br)cc3)cs2)cc1`: the Ki was determined as 1280 nM. Turning to `Brc1ccc(Nc2nc(-c3ccncc3)cs2)cc1`, the Ki was 440 nM. Compared with the last molecule, the Ki is about 2.9-fold lower. Consider `Cc1cccc(Nc2nc(-c3ccncc3)cs2)n1`, for which the Ki was 30200 nM. This Ki lies about 69-fold higher than the previous one.

Values taken from ChEMBL document CHEMBL3352275, “2-Aminothiazole derivatives as antimycobacterial agents: Synthesis, characterization, in vitro and in silico studies” (Eur J Med Chem, 2014).
